According to patent US20240245085A1, “FLAVORING COMPOSITIONS FOR TASTE IMPROVEMENT” (SYMRISE AG, priority 2021, published 2024):
Entries after “also recorded” stand apart in the source; their conditions may differ.

Legend:
Format in all cases: in vivo
vegan patty = assay: Blind tasting of vegan patties by a panel (sensory profile)
Experimental: A vegan patty has been produced containing the following ingredients: water, leguminose protein isolate, sun flower oil, leguminose protein concentrate, coconut oil, methylcellulose, fiber, salt, starch, lactic acid and sodium diacetate. Water, thickener and starch are mixed with water, pH is adjusted, proteins are added next followed by fibre and oil ingredients. Finally, a taste masking ingredient according to Table 4 is added. The ingredients are thoroughly mixed and the dough is formed to patties. The patties where baked in an oven at 200° C. After cooling the patties, patties were sliced and samples were coded for a blind tasting with a panel.

quinine (10 mg/kg) = assay: Bitter-duo test (paired comparison, trained panel, nose-clips) with quinine
Experimental: (§1) A trained panel was given different samples with the bitter tasting substances caffeine (500 mg/kg), quinine (10 mg/kg) and naringin (100 mg/kg). Caffeine is the bitter principle of coffee and coffee-type beverages, quinine is used as food additive to flavor tonics or energy drinks and naringin is the bitter principle of grapefruit juice. Each test includes a different amount of bitter-masking substances or mixtures thereof. During the tests, the panellists wear nose-clips to exclude any olfactory impressions. These tests are referred to as bitter-duo tests.
In a first trial, above mentioned bitter samples were mixed with 10 mg/kg eriodictyol-7-O-glucoside at a purity of >95%.
In a second test, the bitter agents were mixed with 50 mg/kg eriocitrin at a purity of >95% and the bitter-masking effect evaluated by the panel.
Another trial was set-up using samples with 10 mg/kg quinine and 50 mg/kg eriodictyol (ED) alone or with an inventive flavoring composition containing eriodictyol-7-O-glucoside (EDMG) and neoeriocitrin (NEC) eriocitrin (EC). […] The same effect was observed when using neoeriocitrin instead of eriocitrin. The wt.-% are based on the dry weight of the flavoring composition.
Other solvents than methanol, mixtures of solvents and different CV ratios can be used in order to achieve the same purification than with methanol as described herein. The column volume ration (CV) is the ratio of column bed volume and volume of solution flowing through column. The product was evaluated by a sensory panel (n=20).

caffeine (500 mg/kg) [1] = assay: Pairwise bitter intensity rating (scale 1-100) in water with 500 mg/kg caffeine; settings: for bitter masking of caffeine solution (in words): 50 mg/kg, 500 mg/kg caffeine; for Bitter intensity [0-100] of base: taste modulator 50 mg/kg in water with 500 mg/kg caffeine
Experimental: The said mixture can be compared with further taste modulating compounds to impart taste modulating sensory effects. […] A masking mixture comprising three parts hesperetin, two parts naringenin and two parts of the inventive citrus hydrolysate (55 wt.-% ED, 11.1 wt.-% EDMG, 1.5 wt.-% EC) was tested with 50 mg/kg dosage against naringenin, hesperetin and homoeriodictyol (No. 1-3, Table 5). The compounds and the mixture were all solved in water with added 500 mg/kg caffeine as bitter agent. The panelists were asked to rate the bitter intensity of each sample of one sample pair on a scale of 1-100. […] Said mixtures can be obtained by mixing the inventive citrus hydrolysate with hydrolysates from orange (yielding hesperetin), grapefruit or bergamot (yielding naringenin) or bitter orange and lime among other citrus fruits.

naringin (100 mg/kg) = assay: Bitter-duo test (paired comparison, trained panel, nose-clips) with naringin
Experimental: as §1, with “tests. In a first trial, above mentioned bitter samples were mixed with 10 mg/kg eriodictyol-7-O-glucoside at a purity of >95%. […] In a second test, the bitter agents were mixed with 50 mg/kg eriocitrin at a purity of >95% and the bitter-masking effect evaluated by the panel.” for “tests.”

caffeine (500 mg/kg) [2] = assay: Bitter-duo test (paired comparison, trained panel, nose-clips) with caffeine
Experimental: as §1, with “tests. In a first trial, above mentioned bitter samples were mixed with 10 mg/kg eriodictyol-7-O-glucoside at a purity of >95%. […] In a second test, the bitter agents were mixed with 50 mg/kg eriocitrin at a purity of >95% and the bitter-masking effect evaluated by the panel.” for “tests.”

[3] = Own taste of eriodictyol-7-O-glucoside at higher concentration; settings: concentration above 50 mg/kg
[4] = Table 2, dosage 10 mg/kg in table (text: 50 mg/kg), 20 panelists
[5] = Table 1, dosage 10 mg/kg, 20 panellists

SMILES: O=C1C[C@@H](c2ccc(O)c(O)c2)Oc2cc(O)cc(O)c21 [ED, Eriodictyol]
- taste improving and bitter masking property (in words) (vegan patty): improved the taste profile
- Bitter masking activity (%) (quinine (10 mg/kg); Table 3, dosage 50 mg/kg, 10 mg/kg quinine, 18-20 panellists): −31.0%

SMILES: COc1ccc([C@@H]2CC(=O)c3c(O)cc(O)cc3O2)cc1O [Hesperetin]
- bitter masking of caffeine solution (in words) (caffeine (500 mg/kg) [1]): not potent bitter masking compounds
- Bitter intensity [0-100] of base (caffeine (500 mg/kg) [1]): 39

SMILES: COc1cc([C@@H]2CC(=O)c3c(O)cc(O)cc3O2)ccc1O [Homoeriodictyol]
- taste improving and bitter masking property (in words) (vegan patty): improved the taste profile; also recorded: reduced the bitterness more than eriodictyol
- Bitter intensity [0-100] of base (caffeine (500 mg/kg) [1]): 37.5

SMILES: O=C1C[C@@H](c2ccc(O)cc2)Oc2cc(O)cc(O)c21 [Naringenin]
- bitter masking of caffeine solution (in words) (caffeine (500 mg/kg) [1]): not potent bitter masking compounds
- Bitter intensity [0-100] of base (caffeine (500 mg/kg) [1]): 36.4

SMILES: C[C@@H]1O[C@@H](OC[C@H]2O[C@@H](Oc3cc(O)c4c(c3)O[C@H](c3ccc(O)c(O)c3)CC4=O)[C@H](O)[C@@H](O)[C@@H]2O)[C@H](O)[C@H](O)[C@H]1O [eriocitrin, Eriocitrin]
- bitter masking effect (in words) (naringin (100 mg/kg); 50 mg/kg, purity >95%): not significant
- Bitter masking activity (%) (naringin (100 mg/kg); [4]): 0.8%
- bitter masking effect (in words) (caffeine (500 mg/kg) [2]; 50 mg/kg, purity >95%): not significant
- Bitter masking activity (%) (caffeine (500 mg/kg) [2]; [4]): 5.6%
- bitter masking effect (in words) (quinine (10 mg/kg); 50 mg/kg, purity >95%, quinine 10 mg/kg): not significant
- Bitter masking activity (%) (quinine (10 mg/kg); Table 2, dosage 10 mg/kg in table (text: 50 mg/kg), quinine 10 mg/kg, 20 panelists): −1.6%

SMILES: O=C1C[C@@H](c2ccc(O)c(O)c2)Oc2cc(O[C@@H]3O[C@H](CO)[C@@H](O)[C@H](O)[C@H]3O)cc(O)c21 [eriodictyol-7-O-glucoside]
- own taste notes [3]: bitter notes
- bitter-reducing effect (in words) (naringin (100 mg/kg); 10 mg/kg, purity >95%): not significant
- Bitter masking activity (%) (naringin (100 mg/kg); [5]): −2.59%
- bitter-reducing effect (in words) (caffeine (500 mg/kg) [2]; 10 mg/kg, purity >95%): not significant
- Bitter masking activity (%) (caffeine (500 mg/kg) [2]; [5]): −1.94%
- bitter-reducing effect (in words) (quinine (10 mg/kg); 10 mg/kg, purity >95%, quinine 10 mg/kg): not significant
- Bitter masking activity (%) (quinine (10 mg/kg); Table 1, dosage 10 mg/kg, quinine 10 mg/kg, 20 panellists): −7.42%
